Data set [1] deals with HEK-Blue™ hTLR4 cells. The data set is described as follows: MTT cell viability assay. It counts as cell-based. As to conditions: 25 and 50 μM, 16-18 hours. Here is the method:
HEK-Blue™ hTLR4 cells were treated with the higher concentrations used in the preceding assays and incubated for 16-18 hours. Results were normalized to PBS addition and are expressed as mean of percentage ±ES. of at least three independent experiments.
Finally, compound FP11 cytotoxicity was assessed by MTT (3-(4,5-dimethylthiazol-2-yl)-2,5-diphenyltetrazolium bromide) viability assay. HEK-Blue™ hTLR4 cells were treated with the highest compound concentrations used in the preceding assay (25 and 50 μM).
HEK-Blue™ hTLR4 cells were grown in DMEM supplemented with 10% FBS, 2 mM glutamine and antibiotics.
Cells were seeded in 100 μL of DMEM without Phenol Red at a density of 4×10^4 cells per well and incubated overnight (37° C., 5% CO2 , 95% humidity).
Cells were treated with the higher dose of compound used in the previous experiments and incubated overnight. MTT solution (5 mg/mL in PBS) was added to each well, and after 3 h incubation, 0.1 N HCl in 2-propanol solution was used to dissolve formazan crystals.
Formazan concentration was determined by measuring the absorbance at 570 nm.
The results were normalized with untreated control (PBS) and expressed as the mean of percentage ±SEM of three independent experiments.
For orientation: Formazan colour is commonly taken as a measure of viable cells.

Data set [2] deals with T1, purified human MD-2 receptor (Homo sapiens, UniProt Q9Y6Y9).
T1 sequence (Q9Y6Y9 19-160): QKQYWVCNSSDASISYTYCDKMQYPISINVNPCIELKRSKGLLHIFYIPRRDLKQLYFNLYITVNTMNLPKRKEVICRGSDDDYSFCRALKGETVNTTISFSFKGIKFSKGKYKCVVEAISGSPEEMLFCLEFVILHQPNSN
Kind of data set: MD-2-bound fluorescent molecule (bis-ANS) displacement assay. As to conditions: MD-2 200 nM, bis-ANS 200 nM. The format is binding. Here is the method: therefore, TLR4 modulators that interact with MD-2 compete with compound bis-ANS, and are able to displace it from MD-2.
Fluorescence was measured on PerkinElmer fluorimeter LS 55 (PerkinElmer, UK) as previously described^[5].
All measurements were done at 20° C. in a 5×5 mm quartz glass cuvette (Hellma Suprasil, Müllheim, Germany). MD-2 protein (200 nM) and 1,1′-Bis(anilino)-4,4′-bis (naphtalene)-8,8′ disulfonate (bis-ANS, 200 nM) were mixed and incubated until reaching stable relative fluorescence units (RFUs) emitted at 420-550 nm under excitation at 385 nm.
Compounds, at different concentrations, were then added, followed by relative fluorescence unit (RFU) measurement at 420-550 nm.

Data set [3] deals with T1, purified human MD-2 receptor. Kind of data set: Biotinylated LPS displacement from MD-2 hydrophobic pocket (ELISA). The format is binding. The procedure: The ability to displace LPS from MD-2 hydrophobic pocket was assessed by using an ELISA assay. Molecules FP11 and FP111 were added at increasing concentrations to MD-2 which had previously been incubated with biotinylated LPS.
The ability of the compounds to displace LPS from MD-2 hydrophobic pocket was determined by ELISA.
A microtiter plate was coated overnight at 4° C. with 100 μL/well of 5 μg/mL chicken polyclonal anti-MD-2 antibodies, diluted in 50 mM Na2CO3 buffer, pH 9.6, and blocked with 1% BSA in PBS. After washing, 1 μM MD-2 with biotin-labeled LPS was added and incubated for 2 h. After washing, the compounds were added at different concentrations and incubated for 1.5 h.
After washing, 0.5 μg/mL HRP-conjugated streptavidin (Sigma) in PBS was added, followed by detection at 420 nm after the addition of 100 μL of ABTS (Sigma). Chicken anti-MD-2 polyclonal antibodies were prepared against recombinant MD-2 by GenTel (Madison, Wis., USA),

Data set [4] shares this target. Kind of data set: Anti-MD-2 antibody (9B4) competition, antibody-sandwich ELISA. It counts as binding. The procedure: The direct binding of molecules FP11 and FP111 to MD-2 was analyzed by using a monoclonal antibody binding MD-2, but not LPS-bound MD-2 (Viriyakosol, S., et al., Characterization of monoclonal antibodies to human soluble MD-2 protein. Hybridoma (Larchmt), 2006. 25(6): p. 349-57).
Anti-MD-2 monoclonal antibody (9B4) specifically binds an epitope near the MD-2 hydrophobic pocket, which is available for 9B4 antibody binding only when the MD-2 hydrophobic pocket is empty. Compound FP11 is accountable for a decrease of 9B4 antibody binding to MD-2 equal to 95% at a concentration of 20 μM (FIG. 3E).
The method of antibody-sandwich ELISA for the detection of the binding of compounds to MD-2 was modified from a previous study.
A microtiter plate was coated overnight at 4° C. with 100 μL/well of 5 μg/mL of chicken polyclonal anti-MD-2 antibodies, diluted in 50 mM Na2CO3 buffer, pH 9.6, and blocked with 1% BSA in PBS. After washing, 1 μM MD-2 with tested compounds was added and incubated for 2 h.
Mouse anti-MD-2 mAb (0.1 μg/mL 9B4) and goat antimouse IgG conjugated with HRP (0.1 μg/mL) in PBS were added, followed by detection at 420 nm after the addition of 100 μL of ABTS (Sigma).
Chicken anti-MD-2 polyclonal antibodies were prepared against recombinant MD-2 by GenTel (Madison, Wis., USA), monoclonal mouse anti-MD-9B4 antibodies were from eBioscience (San Diego, Calif., USA), and secondary goat antimouse IgG conjugated with horseradish peroxidase was from Santa Cruz Biotechnology (Santa Cruz, Calif., USA).
(ELISA stands for enzyme-linked immunosorbent assay.)

For data set [5] the target is unchanged. The data set is described as follows: Surface plasmon resonance binding to MD-2. The procedure: Surface plasmon resonance (SPR) experiments enable the study of direct interactions between the molecules to be characterized and MD-2.
The binding affinity of the compounds to recombinant MD-2 was determined using a Biacore X100 with an NTA sensor chip (Biacore, GE Healthcare, Uppsala, Sweden). Briefly, 0.5 μM MD-2 (in 50 mM TRIS, 150 mM NaCl, 0.5% Tween 20, pH 7.5) was immobilized onto the sensor chip previously activated with 1 min pulse of 10 mM NiSO4. The first flow cell was used as a reference surface to control nonspecific binding.
Both flow cells were incubated with the analyte (in PBS, 5% DMSO, 5% EtOH, pH 7.5) at a flow rate of 10 μL/min at 25° C. at increasing concentrations. The data were analyzed with Biacore Evaluation software. KD values were calculated by global fitting of the equilibrium binding responses from various concentrations of analytes using a 1:1 Langmuir binding model.

Each structure is given as a SMILES string. Entries after “also recorded” stand apart in the source; their conditions may differ.

From patent US20230037862A1, “SYNTHETIC AGONISTS OF TLR4 RECEPTOR” (UNIVERSITÀ DEGLO STUDI DI MILANO - BICOCCA, priority 2017, published 2023) come the findings set out here.

The term Kd denotes the concentration at which binding is half-saturated.

Consider `CCCCCCCCCCCCCC(=O)NC1C(OC(=O)CCCCCCCCCCCCC)[C@H](OC(=O)CCCCCCCCCCCCC)C(CO)O[C@H]1OP(=O)(O)O` (stereo partly drawn) [FP11, 1-O-Phosphoryl-2-deoxy-4-O-tetradecanoyl 3-O-tetradecanoyl-2-tetradecanoylamino-α-D-glucopiranoside], for which the “cytotoxicity (MTT viability)” value in data set [1] is “not toxic at the concentrations assayed”. In addition, in data set [2], the “decrease of bis-ANS fluorescence / inhibition of bis-ANS binding to MD-2” value is listed as “concentration-dependent decrease of compound bis-ANS fluorescence; also recorded: inhibits the binding of bis-ANS to MD-2 in a dose-dependent manner”. Besides, the “displacement of biotinylated LPS from MD-2” value in data set [3] (160 μM) was 55%. The “ability to displace biotinylated LPS from MD-2 hydrophobic pocket” value in data set [3] (increasing concentrations, highest 160 μM) is on record as “displaces biotinylated LPS from MD-2 hydrophobic pocket in a dose-dependent manner”. In addition, in data set [4] (20 μM), the “decrease of 9B4 antibody binding to MD-2” value is 95%. Also, the “prevention of monoclonal antibody 9B4 binding to MD-2” value in data set [4] (up to 20 μM) was “prevents the binding of monoclonal antibody to MD-2 in a dose-dependent manner”. For the same compound, the “direct binding to MD-2 (SPR)” value in data set [5] was “directly binds the MD-2 hydrophobic pocket”. Further, the Kd in data set [5] (SPR, 1:1 Langmuir binding model, 25° C.) was found to be 6.5 µM.
